Where “and” joins values, the source holds several entries; their conditions need not be identical. Identical values can stand only once.
Columns and labels:
[1] = 33 mg; cited from earlier work
[2] = system: patients with moderate-severe Major Depressive Disorder; test: BDI-II (Beck Depression Inventory), same study; format: in vivo, human; conditions: for BDI-II score: individual patients, fumarate
Source text: (§1) An unblinded study of a single dose of N,N-dimethyltryptamine [DMT] fumarate in patients currently taking a selective serotonin reuptake inhibitor (SSRI) for their depression, but for whom the SSRI is not fully relieving their depression is ongoing (ClinicalTrials.gov Identifier: NCT05553691). The study comprises two groups:
(§2) “Test Cohort”: Patients who are currently on a stable treatment course of SSRIs, which have been ineffective in fully relieving their depression symptoms (SSRI prescribed outside of study). Patients were administered a single dose of DMT fumarate by intravenous infusion; and
(§3) “Control Cohort”: Patients who are not currently taking any pharmacological treatment for their depression (control group). Patients were administered a single dose of DMT fumarate by intravenous infusion.
(§4) Patients were recruited with moderate-severe Major Depressive Disorder (“MDD”) as defined by a Hamilton Depression Rating Scale (HAM-D) score of ≥14. Efficacy was assessed using the Montgomery-Asberg Depression Rating scale (MADRS) to measure any change in patients' depression symptoms from baseline (Day 0). Additional exploratory endpoints include the Beck Depression Inventory (BDI) to assess patients' self-reported depression, and the State-Trait Anxiety Inventory (STAI-T) to assess patients' self-reported anxiety.
(§5) DMT fumarate is administered by intravenous infusion on Day 1.

[3] = system: patients with moderate-severe Major Depressive Disorder; test: MADRS in unblinded study of single IV dose of DMT fumarate (NCT05553691); format: in vivo, human; conditions: for MADRS score: individual patients; for MADRS score / Remission (MADRS score ≤10) / Response (≥50% reduction in MADRS score from baseline): fumarate
Source text: as §1, §2, §3, §4, §5

[4] = system: patients with moderate-severe Major Depressive Disorder; test: Safety & Tolerability, same study; format: in vivo, human
Source text: as §1, §2, §3, §5
The administration of DMT fumarate was well-tolerated by all patients in both the test and the control cohorts, with no apparent differences between cohorts.

[5] = system: patients with moderate-severe Major Depressive Disorder; test: STAI-T (State-Trait Anxiety Inventory), same study; format: in vivo, human; conditions: for STAI-T score: individual patients, fumarate
Source text: as §1, §2, §3, §4, §5

[6] = system: major depressive disorder; conditions: in vivo; cited from earlier work
[7] = Control Cohort, n=5, Day 15 vs Day 0
[8] = Control Cohort, n=5, Day 29 vs Day 0
[9] = Test Cohort (on SSRI), n=12, Day 15
[10] = Test Cohort (on SSRI), n=12, Day 15 vs Day 0
[11] = Test Cohort (on SSRI), n=12, Day 29
[12] = Test Cohort (on SSRI), n=12, Day 29 vs Day 0
[13] = Test Cohort (on stable SSRI), Day 15
[14] = Test Cohort (on stable SSRI), Day 29
[15] = Control Cohort, n=5, Day 8 vs Day 0
[16] = Test Cohort (on SSRI), n=12, Day 8
[17] = Test Cohort (on SSRI), n=12, Day 8 vs Day 0

Q: With `CC(C)N(CCc1c[nH]c2cccc(OC(=O)CCCC(=O)O)c12)C(C)C` [iprocin-4-glutarate, N,N diisopropyltryptamine-4-glutarate] as the compound, how does the “Mean duration of the subjective experience” value [1] read?
A: 3.7 h

Q: Which BDI-II score ([2]; Control Cohort, Day 15) does the source give for `CN(C)CCc1c[nH]c2ccccc12.O=C(O)/C=C/C(=O)O` [DMT fumarate, N,N-dimethyltryptamine fumarate] here?
A: 20 and 17 (2×) and 22 and 8

Q: And the BDI-II score ([2]; Control Cohort, Day 29)?
A: 12 and 13 and 16 and 31 and 2

Q: And the “BDI-II Mean” value ([2]; Control Cohort, n=5, Day 15)?
A: 16.8

Q: What about the “BDI-II Mean % change from Baseline” value [2, 7] of the same compound?
A: −54%

Q: What about the “BDI-II Mean” value ([2]; Control Cohort, n=5, Day 29) of the same compound?
A: 14.8

Q: And the “BDI-II Mean % change from Baseline” value [2, 8]?
A: −59%

Q: And the “BDI-II Mean” value [2, 9]?
A: 5.1

Q: And the “BDI-II Mean % change from Baseline” value [2, 10]?
A: −84%

Q: And the “BDI-II Mean” value [2, 11]?
A: 3.1

Q: And the “BDI-II Mean % change from Baseline” value [2, 12]?
A: −88%

Q: And the BDI-II score [2, 13]?
A: 0 (3×) and 3 (2×) and 29 and 6 and 5 (2×) and 1 (2×) and 8

Q: What about the BDI-II score [2, 14] of the same compound?
A: 0 (5×) and 4 and 11 and 7 (2×) and 1 and 2 and 5

Q: What about the MADRS score ([3]; Control Cohort (no pharmacological treatment), Day 8) of the same compound?
A: 7 and 21 (2×) and 24 and 9

Q: What about the MADRS score ([3]; Control Cohort (no pharmacological treatment), Day 15) of the same compound?
A: 8 and 18 and 21 and 26 and 7

Q: And the MADRS score ([3]; Control Cohort (no pharmacological treatment), Day 29)?
A: 17 and 18 and 15 and 30 and 0

Q: And the “MADRS Mean” value ([3]; Control Cohort, n=5, Day 8)?
A: 16.4

Q: And the “MADRS Mean % change from Baseline” value [3, 15]?
A: −53.1%

Q: And the “MADRS Mean” value ([3]; Control Cohort, n=5, Day 15)?
A: 16.0

Q: What about the “MADRS Mean % change from Baseline” value [3, 7] of the same compound?
A: −54.2%

Q: What about the “MADRS Mean” value ([3]; Control Cohort, n=5, Day 29) of the same compound?
A: 16.0

Q: And the “Number of participants in remission (MADRS ≤10)” value (“Number of participants” below) ([3]; Control Cohort, n=5, Day 29)?
A: One

Q: What about the “Remission (MADRS score ≤10)” value ([3]; Control Cohort, n=5, Day 29) of the same compound?
A: 20%

Q: And the “Response (≥50% reduction in MADRS score from baseline)” value ([3]; Control Cohort, n=5, Day 29)?
A: 80%

Q: And the “MADRS Mean % change from Baseline” value [3, 8]?
A: −54.8%

Q: And the “MADRS Mean” value [3, 16]?
A: 6.7

Q: What about the “MADRS Mean % change from Baseline” value [3, 17] of the same compound?
A: −78.1%

Q: And the “MADRS Mean” value [3, 9]?
A: 6.0

Q: What about the “MADRS Mean % change from Baseline” value [3, 10] of the same compound?
A: −81.2%

Q: And the “MADRS Mean” value [3, 11]?
A: 3.0

Q: And the “Number of participants” value [3, 11]?
A: 11 participants

Q: And the “Remission (MADRS score ≤10)” value [3, 11]?
A: 92%

Q: And the “Response (≥50% reduction in MADRS score from baseline)” value [3, 11]?
A: 100%

Q: What about the “MADRS Mean % change from Baseline” value [3, 12] of the same compound?
A: −90.2%

Q: What about the “Number of participants” value ([3]; Test Cohort (on SSRI), n=12, all other time points (Day 8, Day 15)) of the same compound?
A: 10 participants

Q: What about the MADRS score ([3]; Test Cohort (on stable SSRI), Day 8, single IV infusion Day 1) of the same compound?
A: 1 (3×) and 0 (2×) and 27 and 21 and 10 and 7 and 2 (2×) and 8

Q: What about the MADRS score [3, 13] of the same compound?
A: 1 and 0 (4×) and 27 and 15 and 8 and 3 and 5 and 4 and 9

Q: And the MADRS score [3, 14]?
A: 11 and 0 and 8 and 1 and 6 and 7 and 2

Q: And the Tolerability ([4]; all patients in both test and control cohorts, no apparent differences between cohorts)?
A: well-tolerated

Q: And the “Drug-related serious adverse events” value ([4]; both cohorts)?
A: No drug-related serious adverse events reported

Q: And the “Resolution of drug-related AEs” value ([4]; both cohorts)?
A: majority of drug-related AEs were resolved during the dosing visit

Q: What about the “Severity of drug-related AEs” value ([4]; both cohorts) of the same compound?
A: mild or moderate

Q: And the “Number of drug-related adverse events (AEs)” value ([4]; control cohort)?
A: 3

Q: And the “Number of drug-related adverse events (AEs)” value ([4]; test cohort (on SSRI))?
A: 8

Q: What about the STAI-T score ([5]; Control Cohort, Day 8) of the same compound?
A: 60 and 40 and 44 and 50 and 38

Q: And the STAI-T score ([5]; Control Cohort, Day 15)?
A: 58 and 46 and 39 and 52 and 41

Q: What about the STAI-T score ([5]; Control Cohort, Day 29) of the same compound?
A: 51 and 49 and 47 and 59 and 32

Q: And the “STAI-T Mean” value ([5]; Control Cohort, n=5, Day 8)?
A: 46.4

Q: What about the “STAI-T Mean % change from Baseline” value [5, 15] of the same compound?
A: −28.9%

Q: And the “STAI-T Mean” value ([5]; Control Cohort, n=5, Day 15)?
A: 47.2

Q: What about the “STAI-T Mean % change from Baseline” value [5, 7] of the same compound?
A: −27.6%

Q: And the “STAI-T Mean” value ([5]; Control Cohort, n=5, Day 29)?
A: 47.6

Q: What about the “STAI-T Mean % change from Baseline” value [5, 8] of the same compound?
A: −27.2%

Q: And the “STAI-T Mean” value [5, 16]?
A: 39.8

Q: What about the “STAI-T Mean % change from Baseline” value [5, 17] of the same compound?
A: −33.6%

Q: And the “STAI-T Mean” value [5, 9]?
A: 37.3

Q: What about the “STAI-T Mean % change from Baseline” value [5, 10] of the same compound?
A: −37.5%

Q: And the “STAI-T Mean” value [5, 11]?
A: 35.2

Q: And the “STAI-T Mean % change from Baseline” value [5, 12]?
A: −41.0%

Q: And the STAI-T score ([5]; Test Cohort (on stable SSRI), Day 8)?
A: 47 and 40 (2×) and 66 and 49 and 34 (2×) and 26 and 46 and 28 and 29 and 38

Q: What about the STAI-T score [5, 13] of the same compound?
A: 44 and 30 and 62 and 45 and 33 (2×) and 40 (2×) and 42 and 25 and 22 and 32

Q: What about the STAI-T score [5, 14] of the same compound?
A: 45 and 34 (2×) and 41 and 43 and 28 and 40 and 32 (2×) and 44 and 26 and 23

Q: For `CN(C)CCc1c[nH]c2ccccc12` [N,N-dimethyltryptamine, 2-(1H-indol-3-yl)-N,N-dimethylethanamine], which “Durability of antidepressant effect” value [6] is on record?
A: three months or more

Reference: patent US20240325351A1, “METHOD OF ADMINISTRATION” (Cybin UK Ltd., priority 2023, published 2024)
